{"source": "patent US9155702B2", "about": "“Composition and microsphere for controlled-release of exendin, and method preparing the same” (PEPTRON CO., LTD, priority 2007, dated 2015)", "origin": "cited, not measured here", "test_system": "diabetic ob/ob mice", "settings": "intraperitoneal injections once per day"}
{"substance": "exendin-4", "values": [{"measurement": "effect of lowering the blood-sugar level", "value": "prolonged effect of lowering the blood-sugar level"}]}
